US20040200144A1, “Plant growth regulator and a method of producing the regulator” (Dainichiseika Color & Chemicals Mfg. Co., Ltd., priority 2003, published 2004)

Key:
Type in all cases: in vivo
tomato young plants = assay: Dwarfing test of tomato young plant; details: for Plant Height / Dwarfing Rate: 5 ml per cell on 7th day, measured 20th day; for Dwarfing Rate: vs comparative group
Experimental: (§1) 50 g of sodium tripolyphosphate was dissolved in 400 ml of distilled water at 80° C., 17.5 g of cinnamic acid was added to the sodium tripolyphosphate solution and dissolved by stirring, the resultant solution was diluted with distilled water until the total volume of solution was 500 ml, and thus 3.5% cinnamic acid aqueous solution (pH 6.5) was prepared. The aqueous solution was further diluted with distilled water 70 times or 17.5 times, and 0.05% cinnamic acid aqueous solution and 0.2% cinnamic acid aqueous solution were prepared, respectively.
(§2) Nursery soil for house use was filled into paper joint pots (each with 24 cells: 34×43×50 mm/cell), water was sufficiently given to the soil, and seeds of carrots were sowed. After seeding, the pot was placed in the same greenhouse as described above to sprout. Subsequently, on the 5th day, the cinnamic aqueous acid solutions were added to the nursery soil in the joint pots. One of the joint pots (24 cells) was prepared as a 0.05% cinnamic acid aqueous solution addition group, and 5 ml of the 0.05% cinnamic acid aqueous solution was added to the nursery soil of each cell. Another one of the join pots was prepared as a 0.2% cinnamic acid aqueous solution addition group, and 5 ml of the 0.2% cinnamic acid aqueous solution was added to the nursery soil of each cell. The other one of the joint pots was prepared as a comparative group in which 5 ml of water is added to each cell, instead of the cinnamic acid aqueous solution. Subsequently, the cultivation of carrot young plants in each group was continued under general conditions. On the 27th day, the heights of young plants in each group were measured, the dwarfing rate (%) was calculated, and the dwarfing effect of cinnamic acid aqueous solution on carrot young plants was examined. […].
In the same way as in Example 12 except that seeds of tomato were sowed, and that the cinnamic acid solutions were added to the nursery soil of the joint pot on the 7th day, the dwarfing effect of cinnamic acid aqueous solution on tomato young plants was examined. […]

cucumber young plants = assay: Dwarfing test of cucumber young plant; details: for Plant Height / Dwarfing Rate: 5 ml per cell on 7th day, measured 20th day; for Dwarfing Rate: vs comparative group
Experimental: After seeding, the pot was placed in the same greenhouse as described above to sprout. Subsequently, on the 5th day, the cinnamic aqueous acid solutions were added to the nursery soil in the joint pots. One of the joint pots (24 cells) was prepared as a 0.05% cinnamic acid aqueous solution addition group, and 5 ml of the 0.05% cinnamic acid aqueous solution was added to the nursery soil of each cell. Another one of the join pots was prepared as a 0.2% cinnamic acid aqueous solution addition group, and 5 ml of the 0.2% cinnamic acid aqueous solution was added to the nursery soil of each cell. […] Subsequently, the cultivation of carrot young plants in each group was continued under general conditions. On the 27th day, the heights of young plants in each group were measured, the dwarfing rate (%) was calculated, and the dwarfing effect of cinnamic acid aqueous solution on carrot young plants was examined. From the results in Table 5, it became evident that the 0.05% and 0.2% cinnamic acid aqueous solutions are effective in dwarfing carrot young plants. In the same way as in Example 5 except that seeds of cauliflower were sowed, the cinnamic acid solutions were added to the nursery soil in the joint pot on the 4th day, and that heights of young plants in each group were measured on the 20th day, the dwarfing effect of cinnamic acid aqueous solution on cauliflower young plants was examined. From the results in Table 12, it became evident that the cinnamic acid aqueous solutions are effective in dwarfing cauliflower young plants. In the same way as in Example 12 except that seeds of tomato were sowed, and that the cinnamic acid solutions were added to the nursery soil of the joint pot on the 7th day, the dwarfing effect of cinnamic acid aqueous solution on tomato young plants was examined. From the results in Table 17, it became evident that the cinnamic acid aqueous solutions are effective in dwarfing tomato young plants. In the same way as in Example 17 except that seeds of cucumber were sowed, the dwarfing effect of cinnamic acid aqueous solution on cucumber young plants was examined. From the results in Table 18, it became evident that the cinnamic acid aqueous solutions are effective in dwarfing cucumber young plants.

turnip young plants = assay: Dwarfing test of turnip young plant; details: for Plant Height / Dwarfing Rate: 5 ml per cell on 4th day, measured 20th day; for Dwarfing Rate: vs comparative group
Experimental: as §1, §2
In the same way as in Example 12 except that seeds of color turnip were sowed, the dwarfing effect of cinnamic acid aqueous solution on turnip young plants was examined. […]

geranium young plants = assay: Dwarfing test of geranium young plant; details: for Plant Height / Dwarfing Rate: 100 ml per pot on 3rd day, measured 44th day; for Dwarfing Rate: vs comparative group
From the text: Dwarfing rate (%)=[(the plant height of the comparative group)−(the plant height of an addition group)/the plant height of the comparative group]×100 In addition, “plant height” in all the tables below was an average of heights from a surface of the soil of a pot used in each test to a head portion of the plant. 160 g of cinnamic acid, 80 g of dispersant (lignin sulfonic sodium) and 293 g of water were mixed, 1,800 g of glass beads (with diameters of 1 to 1.25 mm) were further added, the resultant was added into a vessel of a dispersion apparatus (RM test sand mill with six parallel barrels) and underwent dispersion processing at 120 rpm for three hours, and 30% cinnamic acid dispersion (with the average diameter of cinnamic acid of 0.3 μm) was prepared. The dispersion was diluted with distilled water 300 times or 3,000 times, and thus 0.1% cinnamic acid dispersion and 0.01% cinnamic acid dispersion were prepared, respectively. 30 pots of geranium young plants each with 10 to 12 leaves and a height of 7 cm ware purchased, and placed in a built-up indoor aluminum greenhouse (440×840×1500 mm) at 25° C. On the 3rd day, the cinnamic dispersions as described above were added to the geranium pots. Among 30 pots, 10 pots were prepared as a 0.01% cinnamic acid dispersion addition group, and 100 ml of the 0.01% cinnamic acid dispersion was added to the nursery soil of each pot. Another 10 pots were prepared as a 0.1% cinnamic acid dispersion addition group, and 100 ml of the 0.1% cinnamic acid dispersion was added to the nursery soil of each pot. Remaining 10 pots were prepared as a comparative group, and instead of the cinnamic dispersion, 100 ml of water was added to each pot. Then, the cultivation was continued on the pots in each group under general conditions. The cultivation was continued on geraniums of the pots in each group, and on the 24th day, geraniums in each group started blooming. The cultivation was further continued. On the 44th day after the placement, heights of geraniums of pots in each group were measured, the dwarfing rate (%) was calculated, and the dwarfing effect of cinnamic acid dispersion on geranium young plants was examined. From the results in Table 2, it became evident that the cinnamic acid dispersions are effective in dwarfing geranium young plants.

For O=C(O)C=Cc1ccccc1 [cinnamic acid], which “Plant Height” value (tomato young plants; 0.05% aqueous solution) is on record?
Its value is 7.3 cm.

And the “Dwarfing Rate” value (tomato young plants; 0.05% aqueous solution)?
Its value is 20.7%.

And the “Plant Height” value (tomato young plants; 0.2% aqueous solution)?
The value was 6.1 cm.

What about the “Dwarfing Rate” value (tomato young plants; 0.2% aqueous solution) of the same molecule?
Its value is 33.7%.

And the dwarfing effect (tomato young plants; tomato young plants, 0.05% and 0.2% aqueous solutions)?
Its dwarfing effect is “effective”.

What about the “Plant Height” value (cucumber young plants; 0.05% aqueous solution) of the same molecule?
The value was 7.8 cm.

And the “Dwarfing Rate” value (cucumber young plants; 0.05% aqueous solution)?
Its value is 21.2%.

What about the “Plant Height” value (cucumber young plants; 0.2% aqueous solution) of the same molecule?
Its value is 6.2 cm.

And the “Dwarfing Rate” value (cucumber young plants; 0.2% aqueous solution)?
Its value is 37.4%.

And the dwarfing effect (cucumber young plants; cucumber young plants, 0.05% and 0.2% aqueous solutions)?
Its dwarfing effect is “effective”.

What about the “Plant Height” value (turnip young plants; 0.05% aqueous solution) of the same molecule?
The value was 7.0 cm.

What about the “Dwarfing Rate” value (turnip young plants; 0.05% aqueous solution) of the same molecule?
Its value is 23.1%.

And the “Plant Height” value (turnip young plants; 0.2% aqueous solution)?
The value was 6.0 cm.

What about the “Dwarfing Rate” value (turnip young plants; 0.2% aqueous solution) of the same molecule?
Its value is 34.1%.

What about the dwarfing effect (turnip young plants; turnip young plants, 0.05% and 0.2% aqueous solutions) of the same molecule?
Its dwarfing effect is “effective”.

And the “Plant Height” value (geranium young plants; 0.01% dispersion)?
The value was 13.5 cm.

And the “Dwarfing Rate” value (geranium young plants; 0.01% dispersion)?
The value was 12.9%.

And the “Plant Height” value (geranium young plants; 0.1% dispersion)?
The value was 6.1 cm.

What about the “Dwarfing Rate” value (geranium young plants; 0.1% dispersion) of the same molecule?
The value was 60.6%.

What about the dwarfing effect (geranium young plants; geranium young plants, 0.01% and 0.1% dispersions) of the same molecule?
Its dwarfing effect is “effective”.
